The text below walks through data of patent US20110124021A1, “PHOS[…] ACID SYNTHASE AND CANCER” (priority 2007, published 2011).

Common to all, as to assay type: cell-based, human
Assay [1] deals with FAS phosphorylation in PPC-1 cell line. Nature of the assay: Effect of okadaic acid on FAS phosphorylation in PPC-1 cells (FIG. 7A). As to conditions: brief treatment with 100 nM okadaic acid; PPC-1 prostate cancer cell line. The source says:
(§1) The relationship between FAS phosphorylation and cancer was investigated with a panel of the following human immortalized non-transformed cell lines: IMR-90 fetal lung, hPS human prostate and human cancer cell lines: HCT-116 colon, PPC-1 prostate, and SKBr3 breast. FAS enzyme levels (adjusted to total cellular protein) were quantitated by immunoblot and normalized to IMR-90. Both IMR-90 and hPS non-transformed cell lines had relatively low levels of FAS expression compared to the cancer cell lines, which ranged from 4.3 to 22 fold elevations compared to IMR-90 cells. The high level of FAS expression in SKBr3 cells is consistent with the observation that 28% of its cytosolic protein is FAS (Thompson et al., Biochem. Biophys Acta, 662: 125-130 (1981)).
(§2) Because the FAS expression levels in this panel of cells is consistent with observations made in vivo, the possibility of differential FAS phosphorylation in these cells was investigated. […] No immunoreactivity was detected with an anti-phosphotyrosine or an anti-phosphoserine antibody, although additional antibodies and FAS proteins were not tested. Additional human cancer cell lines, such as LnCAP, OVCAR-3, SKOV3 (ovary), RKO (colon), H460, LX7 (lung), CAPAN-1, and PANC-1 (pancreas) can also be assessed for differential FAS phosphorylation as described above. […]

Assay [2] deals with FAS phosphorylation in HCT-116 cell line. Nature of the assay: Effect of okadaic acid on FAS phosphorylation in HCT-116 cells (FIG. 7A). The conditions noted are these: brief treatment with 100 nM okadaic acid; HCT-116 colon cancer cell line.
Description: as §1, §2

The subject of a further assay is total cellular FAS. Nature of the assay: Effect of okadaic acid treatment on total cellular FAS (FIG. 7B). As to conditions: cell line not stated. The source says:
FIGS. 7A and 7B, illustrates that phosphorylated FAS increases with okadaic acid treatment (part A) while total FAS protein is reduced (part B).
The effect of okadaic acid, a protein phosphatase 2A inhibitor, in FAS phosphorylation was studied.

Take `C=C1[C@@H](O)[C@@H]2O[C@]3(CC[C@H](/C=C/[C@@H](C)[C@@H]4CC(C)=C[C@@]5(O[C@H](C[C@@](C)(O)C(=O)O)CC[C@H]5O)O4)O3)CC[C@H]2O[C@@H]1[C@@H](O)C[C@H](C)[C@H]1O[C@@]2(CCCCO2)CC[C@H]1C` [okadaic acid]: the “ratio of phosphorylated FAS to total FAS” value in assay [1] and in assay [2] was “increases substantially” throughout. Moreover, the “total FAS protein” value with total cellular FAS is listed as “reduced”.
